Source: US10106558B2, “Azolobenzazine compounds, compositions comprising these compounds and their use for controlling invertebrate pests” (BASF SE, priority 2015, dated 2018)

Columns and labels:
Type in all cases: in vivo
[1] = system: yellow fever mosquito (Aedes aegypti); experiment: whole plant or invertebrate; conditions: 48 h, larval mortality visually assessed after 2 days, read-out: mortality in comparison with untreated controls
Summary of the method: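 Freshly hatched larvae (5-15 per well) held in 200 μl tap water; compounds formulated in 25% DMSO/water and 2.5 μl sprayed at several concentrations, two replicates. Plates kept 2 days at 28 °C, 80% RH, then larval mortality scored visually.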

[2] = system: boll weevil (Anthonomus grandis); experiment: Action on boll weevil, eggs on insect diet in 96-well microtiter plates; conditions: 120 h, 800 ppm, egg and larval mortality visually assessed after 5 days, read-out: mortality in comparison with untreated controls
Summary of the method: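 Diet in 96-well plates was infested with 5-10 A. grandis eggs and sprayed with compounds formulated in 75% water/25% DMSO, at several concentrations, in two replicates. Plates were held 5 days at about 25±1 °C and 75±5% RH. Egg and larval mortality was then scored visually.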

[3] = system: Mediterranean fruitfly (Ceratitis capitata); experiment: Action on Mediterranean fruitfly, eggs on insect diet in microtiter plates; conditions: 120 h, egg and larval mortality visually assessed after 5 days, read-out: mortality in comparison with untreated controls
Summary of the method: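 Microtiter plates held insect diet plus 50-80 C. capitata eggs; compounds in 75% water/25% DMSO were sprayed onto the diet at several concentrations, two replicates. Plates were kept at about […] and […] relative humidity for 5 days, then egg and larval mortality was scored visually.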

[4] = system: tobacco budworm (Heliothis virescens); experiment: Action on tobacco budworm, eggs on insect diet in 96-well microtiter plates; conditions: 120 h, egg and larval mortality visually assessed after 5 days, read-out: mortality in comparison with untreated controls
Summary of the method: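 Compounds in 25% DMSO/water sprayed (10 μl) onto insect diet holding 15–25 H. virescens eggs, two replicates at several concentrations. Held 5 days at about 28±1 °C, 80±5% RH. Egg and larval mortality scored visually.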

[5] = system: vetch aphid (Megoura viciae); experiment: Action on vetch aphid, broad bean leaf disks in 24-well microtiter plates; conditions: foliar, 120 h, adult aphids on treated leaf disks, 5 days, read-out: mortality in comparison with untreated controls
Description: Example B7: Action on Vetch Aphid (Megoura viciae)
For evaluating control of vetch aphid (Megoura viciae) through contact or systemic means the test unit consisted of 24-well-microtiter plates containing broad bean leaf disks.
The compounds were formulated using a solution containing 75% v/v water and 25% v/v DMSO. Different concentrations of formulated compounds were sprayed onto the leaf disks at 2.5 μl, using a custom built micro atomizer, at two replications.
After application, the leaf disks were air-dried and 5-8 adult aphids placed on the leaf disks inside the microtiter plate wells. The aphids were then allowed to suck on the treated leaf disks and incubated at about 23±1° C. and about 50±5% relative humidity for 5 days. Aphid mortality and fecundity was then visually assessed.

[6] = system: Diamond Back Moth (Plutella xylostella); experiment: Action on diamond back moth, dipped cabbage leaves; conditions: 3rd instar larvae, 72 hours after treatment, read-out: mortality in comparison with untreated controls
Summary of the method: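 Cabbage leaves dipped in compound in 1:1 water:acetone with 0.01% (vol/vol) surfactant, air-dried, placed on moist filter paper and infested with ten 3rd-instar larvae. Mortality scored 72 hours after treatment; feeding damage rated on a 0-100% scale.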

[7] = system: Southern Armyworm (Spodoptera eridania), 2nd instar larvae; experiment: Action on southern armyworm 2nd instar larvae, sprayed lima bean plants; conditions: 96 h, 4 days after treatment, read-out: mortality in comparison with untreated controls
Summary of the method: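 Lima bean plants (Sieva, 1st true leaf) sprayed electrostatically with compound in 50% acetone/water plus 0.01% nonionic surfactant, dried, then infested with 10–11 larvae in bags. Held at about 25 °C, 20–40% RH; mortality and reduced feeding scored 4 days after treatment versus untreated plants.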

[8] = system: Orchid Thrips (Dichromothrips corbetti); experiment: Action on orchid thrips, floral-immersion technique; conditions: adult thrips, 72 hours after treatment, read-out: mortality in comparison with untreated controls
Summary of the method: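 Lab-colony adult thrips, about 20 per arena, were exposed to whole orchid flower petals dipped in compound diluted in 1:1 acetone:water with 0.01% v/v Kinetic HV and then dried. Arenas were held under continuous light at about 28 °C. Live thrips were counted after 3 days and percent mortality recorded at 72 h post-treatment.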

[9] = system: Silverleaf Whitefly (Bemisia argentifolii) (Adults); experiment: Action on silverleaf whitefly adults, sprayed cotton plants; conditions: 72 h, 3 days after treatment, read-out: mortality in comparison with untreated controls
Description: Example B4: Action on Silverleaf Whitefly (Bemisia argentifolii) (Adults)
The active compounds were formulated by a Tecan liquid handler in 100% cyclohexanone as a 10,000 ppm solution supplied in tubes. The 10,000 ppm solution was serially diluted in 100% cyclohexanone to make interim solutions. These served as stock solutions for which final dilutions were made by the Tecan in 50% acetone:50% water (v/v) into 5 or 10 ml glass vials. A nonionic surfactant (Kinetic®) was included in the solution at a volume of 0.01% (v/v). The vials were then inserted into an automated electrostatic sprayer equipped with an atomizing nozzle for application to plants/insects.
Cotton plants at the cotyledon stage (one plant per pot) were sprayed by an automated electrostatic plant sprayer equipped with an atomizing spray nozzle. The plants were dried in the sprayer fume hood and then removed from the sprayer. Each pot was placed into a plastic cup and about 10 to 12 whitefly adults (approximately 3-5 days old) were introduced. The insects were collected using an aspirator and a nontoxic Tygon® tubing connected to a barrier pipette tip. The tip, containing the collected insects, was then gently inserted into the soil containing the treated plant, allowing insects to crawl out of the tip to reach the foliage for feeding. Cups were covered with a reusable screened lid. Test plants were maintained in a growth room at about 25° C. and about 20-40% relative humidity for 3 days, avoiding direct exposure to fluorescent light (24 hour photoperiod) to prevent trapping of heat inside the cup. Mortality was assessed 3 days after treatment, compared to untreated control plants.

CC(C)c1ccccc1/N=C1\SCC(=O)N1/N=C/c1cc2ccc3c(ncn3-c3ccc(OC(F)(F)F)cc3)c2cn1 [Compound C-28, (2Z)-2-(2-isopropylphenyl)imino-3-[(E)-[3-[4-(trifluoromethoxy)phenyl]imidazo[4,5-h]isoquinolin-7-yl]methyleneamino]thiazolidin-4-one]
≥ 75%: mortality at 800 ppm [1] | mortality at 800 ppm [2] | mortality at 800 ppm [3] | mortality at 800 ppm [4] | mortality at 800 ppm [5] | mortality at 500 ppm [6] | mortality at 500 ppm [7]

CC(C)c1ccccc1N1CCS/C1=N/N=C/c1ccc2c(ccc3c2ncn3-c2ccc(OC(F)(F)F)cc2)n1 [Compound C-21, (E)-3-(2-isopropylphenyl)-N-[(E)-[3-[4-(trifluoromethoxy)phenyl]imidazo[4,5-f]quinolin-7-yl]methyleneamino]thiazolidin-2-imine]
≥ 75%: mortality at 800 ppm [1] | mortality at 500 ppm [8] | mortality at 800 ppm [2] | mortality at 500 ppm [9] | mortality at 800 ppm [3] | mortality at 800 ppm [4] | mortality at 800 ppm [5] | mortality at 500 ppm [6] | mortality at 500 ppm [7]

CC(C)c1ccccc1N1C(=O)CS/C1=N\N=C\c1ccc2c(ccc3c2ncn3-c2ccc(C(F)(F)F)nn2)n1 [Compound C-10, (2Z)-3-(2-isopropylphenyl)-2-[(E)-[3-[6-(trifluoromethyl)pyridazin-3-yl]imidazo[4,5-f]quinolin-7-yl]methylenehydrazono]thiazolidin-4-one]
≥ 75%: mortality at 500 ppm [8] | mortality at 800 ppm [2] | mortality at 500 ppm [9] | mortality at 800 ppm [3] | mortality at 800 ppm [4] | mortality at 800 ppm [5] | mortality at 500 ppm [6] | mortality at 500 ppm [7]
